How the values were obtained:
Assay in all cases: relative viability (nuclei count vs DMSO), 5 days (fraction); higher = more cells survive
[1] = tested on: NCI-H358
Method in brief: (§1)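 Relative viability was taken as the ratio of nuclei in treated wells to nuclei in vehicle wells. Lung cancer cell lines in 1536-well plates received compounds by pin tool one day after seeding, either one drug alone or a fixed anchor-drug dose plus five library-drug doses (not always all listed) in √10 steps. Nuclei were counted on 4× images after 5 days of treatment, and values are medians of duplicate plates.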

[2] = tested on: EPLC-272H
Method in brief: as §1

[3] = tested on: UMC-11
Method in brief: as §1

[4] = tested on: NCI-H1792
Method in brief: as §1

[5] = tested on: NCI-H1915
Method in brief: as §1

[6] = tested on: HCC-366
Method in brief: as §1

[7] = tested on: LXF-289
Method in brief: as §1

[8] = tested on: LC-2-ad
Method in brief: as §1

[9] = tested on: SW 900
Method in brief: as §1

[10] = tested on: SK-LU-1
Method in brief: as §1

[11] = tested on: HOP-62
Method in brief: as §1

[12] = tested on: HCC-78
Method in brief: as §1

[13] = tested on: NCI-H1666
Method in brief: as §1

[14] = tested on: NCI-H2170
Method in brief: as §1

[15] = tested on: LU99A
Method in brief: as §1

[16] = tested on: NCI-H1793
Method in brief: as §1

[17] = tested on: A-427
Method in brief: as §1

[18] = tested on: NCI-H2009
Method in brief: as §1

[19] = tested on: NCI-H1944
Method in brief: as §1

[20] = tested on: COR-L 105
Method in brief: as §1

[21] = tested on: NCI-H2085
Method in brief: as §1

[22] = tested on: NCI-H460
Method in brief: as §1

SMILES: Nc1ccn([C@@H]2O[C@H](CO)[C@@H](O)[C@@H]2O)c(=O)n1 [Cytarabine] + COc1cccc2cc(-c3nc([C@H]4CC[C@H](C(=O)O)CC4)n4ncnc(N)c34)[nH]c12 [OSI-027] (partner 0.5 µM)
- relative viability ([1]; first compound 0.005 µM): 0.608
- relative viability ([1]; first compound 0.01581 µM): 0.631
- relative viability ([1]; first compound 0.05 µM): 0.35
- relative viability ([1]; first compound 0.1581 µM): 0.104
- relative viability ([1]; first compound 0.5 µM): 0.091
- relative viability ([2]; first compound 0.005 µM): 0.268
- relative viability ([2]; first compound 0.01581 µM): 0.28
- relative viability ([2]; first compound 0.05 µM): 0.214
- relative viability ([2]; first compound 0.1581 µM): 0.189
- relative viability ([2]; first compound 0.5 µM): 0.182
- relative viability ([3]; first compound 0.005 µM): 0.314
- relative viability ([3]; first compound 0.01581 µM): 0.418
- relative viability ([3]; first compound 0.05 µM): 0.386
- relative viability ([3]; first compound 0.1581 µM): 0.226
- relative viability ([3]; first compound 0.5 µM): 0.226
- relative viability ([4]; first compound 0.005 µM): 0.757
- relative viability ([4]; first compound 0.01581 µM): 0.664
- relative viability ([4]; first compound 0.05 µM): 0.738
- relative viability ([4]; first compound 0.1581 µM): 0.615
- relative viability ([4]; first compound 0.5 µM): 0.427
- relative viability ([5]; first compound 0.005 µM): 0.657
- relative viability ([5]; first compound 0.01581 µM): 0.57
- relative viability ([5]; first compound 0.05 µM): 0.554
- relative viability ([5]; first compound 0.1581 µM): 0.372
- relative viability ([5]; first compound 0.5 µM): 0.338
- relative viability ([6]; first compound 0.005 µM): 0.823
- relative viability ([6]; first compound 0.01581 µM): 0.61
- relative viability ([6]; first compound 0.05 µM): 0.558
- relative viability ([6]; first compound 0.1581 µM): 0.213
- relative viability ([6]; first compound 0.5 µM): 0.06
- relative viability ([7]; first compound 0.005 µM): 0.671
- relative viability ([7]; first compound 0.01581 µM): 0.634
- relative viability ([7]; first compound 0.05 µM): 0.419
- relative viability ([7]; first compound 0.1581 µM): 0.237
- relative viability ([7]; first compound 0.5 µM): 0.113
- relative viability ([8]; first compound 0.005 µM): 0.734
- relative viability ([8]; first compound 0.01581 µM): 0.69
- relative viability ([8]; first compound 0.05 µM): 0.539
- relative viability ([8]; first compound 0.1581 µM): 0.344
- relative viability ([8]; first compound 0.5 µM): 0.318
- relative viability ([9]; first compound 0.005 µM): 0.396
- relative viability ([9]; first compound 0.01581 µM): 0.34
- relative viability ([9]; first compound 0.05 µM): 0.335
- relative viability ([9]; first compound 0.1581 µM): 0.145
- relative viability ([9]; first compound 0.5 µM): 0.136
- relative viability ([10]; first compound 0.005 µM): 0.275
- relative viability ([10]; first compound 0.01581 µM): 0.294
- relative viability ([10]; first compound 0.05 µM): 0.297
- relative viability ([10]; first compound 0.1581 µM): 0.193
- relative viability ([10]; first compound 0.5 µM): 0.199
- relative viability ([11]; first compound 0.005 µM): 0.554
- relative viability ([11]; first compound 0.01581 µM): 0.474
- relative viability ([11]; first compound 0.05 µM): 0.458
- relative viability ([11]; first compound 0.1581 µM): 0.141
- relative viability ([11]; first compound 0.5 µM): 0.12
- relative viability ([12]; first compound 0.005 µM): 0.368
- relative viability ([12]; first compound 0.01581 µM): 0.349
- relative viability ([12]; first compound 0.05 µM): 0.314
- relative viability ([12]; first compound 0.1581 µM): 0.242
- relative viability ([12]; first compound 0.5 µM): 0.258
- relative viability ([13]; first compound 0.005 µM): 0.81
- relative viability ([13]; first compound 0.01581 µM): 0.729
- relative viability ([13]; first compound 0.05 µM): 0.798
- relative viability ([13]; first compound 0.1581 µM): 0.455
- relative viability ([13]; first compound 0.5 µM): 0.511
- relative viability ([14]; first compound 0.005 µM): 0.543
- relative viability ([14]; first compound 0.01581 µM): 0.513
- relative viability ([14]; first compound 0.05 µM): 0.387
- relative viability ([14]; first compound 0.1581 µM): 0.303
- relative viability ([14]; first compound 0.5 µM): 0.208
- relative viability ([15]; first compound 0.005 µM): 0.287
- relative viability ([15]; first compound 0.01581 µM): 0.271
- relative viability ([15]; first compound 0.05 µM): 0.288
- relative viability ([15]; first compound 0.1581 µM): 0.288
- relative viability ([15]; first compound 0.5 µM): 0.281
- relative viability ([16]; first compound 0.005 µM): 0.296
- relative viability ([16]; first compound 0.01581 µM): 0.285
- relative viability ([16]; first compound 0.05 µM): 0.245
- relative viability ([16]; first compound 0.1581 µM): 0.198
- relative viability ([16]; first compound 0.5 µM): 0.197
- relative viability ([17]; first compound 0.005 µM): 0.4
- relative viability ([17]; first compound 0.01581 µM): 0.259
- relative viability ([17]; first compound 0.05 µM): 0.275
- relative viability ([17]; first compound 0.1581 µM): 0.16
- relative viability ([17]; first compound 0.5 µM): 0.177
- relative viability ([18]; first compound 0.005 µM): 0.656
- relative viability ([18]; first compound 0.01581 µM): 0.642
- relative viability ([18]; first compound 0.05 µM): 0.621
- relative viability ([18]; first compound 0.1581 µM): 0.454
- relative viability ([18]; first compound 0.5 µM): 0.29
- relative viability ([19]; first compound 0.005 µM): 0.313
- relative viability ([19]; first compound 0.01581 µM): 0.239
- relative viability ([19]; first compound 0.05 µM): 0.214
- relative viability ([19]; first compound 0.1581 µM): 0.155
- relative viability ([19]; first compound 0.5 µM): 0.133
- relative viability ([20]; first compound 0.005 µM): 0.601
- relative viability ([20]; first compound 0.01581 µM): 0.587
- relative viability ([20]; first compound 0.05 µM): 0.586
- relative viability ([20]; first compound 0.1581 µM): 0.354
- relative viability ([20]; first compound 0.5 µM): 0.224
- relative viability ([21]; first compound 0.005 µM): 0.535
- relative viability ([21]; first compound 0.01581 µM): 0.735
- relative viability ([21]; first compound 0.05 µM): 0.623
- relative viability ([21]; first compound 0.1581 µM): 0.442
- relative viability ([21]; first compound 0.5 µM): 0.459
- relative viability ([22]; first compound 0.005 µM): 0.384
- relative viability ([22]; first compound 0.01581 µM): 0.486
- relative viability ([22]; first compound 0.05 µM): 0.301
- relative viability ([22]; first compound 0.1581 µM): 0.055
- relative viability ([22]; first compound 0.5 µM): 0.0359

From the supplement of paper PMC10307832
